Like-named read-outs stand apart in the source and are kept apart here.
Legend:
Format in all cases: cell-based
[1] = system: DENV2 replicon; assay: DENV-2 Huh-7 Rep EC50 (replicon luminescence); details: Huh-7 replicon cells, 48 hours, read-out: DENV-2 Huh-7 Rep EC50
Method in brief: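 Huh-7 cells carrying a DENV2 replicon, 5,000 cells/well, were incubated with dosed compounds for 48 h at 37° C. EnduRen live-cell substrate was added 1.5 h before luminescence reading. EC50 came from dose-response against DMSO-only wells.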

[2] = system: RSV strain A2; assay: RSV HEp-2 EC50 (infectious cytopathic cell protection assay); details: HEp-2 cells, RSV A2, 4 days, read-out: RSV HEp-2 EC50
Method in brief: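 HEp-2 cells mixed with titered RSV A2 at 50,000 cells/ml were added to plates holding 3-fold serial compound dilutions in DMSO, then incubated 4 days at 37° C. Cytoprotection was read as cell viability by CellTiter-Glo luminescence and converted to percent inhibition against 0% and 100% inhibition controls.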

[3] = system: RSV A2; assay: RSV NHBE EC50 (RSV A2 antiviral assay in normal human bronchial epithelial cells); details: NHBE cells, RSV A2, 4 days, read-out: RSV NHBE EC50
[4] = system: HRV16; assay: HRV16 HELA EC50 (cytopathic effect in H1-HeLa cells)
Method in brief: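 H1-HeLa cells seeded one day before, given 3-fold serial compound dilutions in triplicate just prior to infection with pre-titrated virus. Incubated 96 h at 33 °C/5% CO2; protection from cytopathic effect read as viability by CellTiter-Glo luminescence, normalised to infected untreated (0%) and uninfected (100%) controls.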

[5] = Dengue virus, DENV2, Huh-7, 48 h
[6] = human respiratory syncytial virus, HEp-2, 96 h
[7] = human respiratory syncytial virus, NHBE, 96 h
[8] = 96 h, H1-HeLa cells, 33° C., read-out: HRV16 HELA EC50

SMILES: C[C@H](N[P@](=O)(OC[C@@]1(C#N)O[C@@H](c2ccc3c(N)ncnn23)[C@H](O)[C@@H]1O)Oc1ccccc1)C(=O)O[C@H]1CC[C@H](C(F)(F)F)CC1 (single isomer, unassigned) [Example 18]
- EC50 [1, 5]: 12300 nM
- EC50 [2, 6]: 114 nM
- EC50 [3, 7]: 91 nM
- EC50 [4, 8]: 212 nM

SMILES: C[C@H](NP(=O)(OC[C@@]1(C#N)O[C@@H](c2ccc3c(N)ncnn23)[C@H](O)[C@@H]1O)Oc1ccccc1)C(=O)OCC1CCCCC1 (single isomer, unassigned) [Example 248]
- EC50 [1]: 4720 nM
- EC50 [2]: 26 nM
- EC50 [3]: 2620 nM
- EC50 ([4]; H1-HeLa cells, 96 h, 33° C.; read-out: HRV16 HELA EC50): 174 nM

SMILES: C[C@H](NP(=O)(OC[C@@]1(C#N)O[C@@H](c2ccc3c(N)ncnn23)[C@H](O)[C@@H]1O)Oc1ccccc1)C(=O)OCCC(C)(C)C (stereo partly drawn) [Example 251, 3,3-dimethylbutyl ((((2R,3S,4R,5S)-5-(4-aminopyrrolo[2,1-f][1,2,4]triazin-7-yl)-2-cyano-3,4-dihydroxytetrahydrofuran-2-yl)methoxy)(phenoxy)phosphoryl)-L-alaninate]
- EC50 [1, 5]: 3530 nM
- EC50 [2, 6]: 8 nM

SMILES: C[C@H](NP(=O)(OC[C@@]1(C#N)O[C@@H](c2ccc3c(N)ncnn23)[C@H](O)[C@@H]1O)Oc1ccccc1)C(=O)OCC(C)(C)C (stereo partly drawn) [Example 92, (2S)-neopentyl 2-(((((2R,3S,4R,5S)-5-(4-aminopyrrolo[2,1-f][1,2,4]triazin-7-yl)-2-cyano-3,4-dihydroxytetrahydrofuran-2-yl)methoxy)(phenoxy)phosphoryl)amino)propanoate]
- EC50 [2, 6]: 64 nM
- EC50 [3, 7]: 73 nM
- EC50 [4, 8]: 225 nM

SMILES: CCCCCCCCCCCCOC(=O)[C@H](C)NP(=O)(OC[C@@]1(C#N)O[C@@H](c2ccc3c(N)ncnn23)[C@H](O)[C@@H]1O)Oc1ccccc1 (stereo partly drawn) [Example 191, dodecyl ((((2R,3S,4R,5S)-5-(4-aminopyrrolo[2,1-f][1,2,4]triazin-7-yl)-2-cyano-3,4-dihydroxytetrahydrofuran-2-yl)methoxy)(phenoxy)phosphoryl)-L-alaninate]
- EC50 [1, 5]: 61300 nM
- EC50 [2, 6]: 2380 nM
- EC50 [3, 7]: 35 nM
- EC50 [4, 8]: 3400 nM

SMILES: CCC(CC)OC(=O)[C@H](C)NP(=O)(OC[C@@]1(C#N)O[C@@H](c2ccc3c(N)ncnn23)[C@H](O)[C@@H]1O)Oc1ccccc1 (stereo partly drawn) [Example 101, (2S)-pentan-3-yl 2-(((((2R,3S,4R,5S)-5-(4-aminopyrrolo[2,1-f][1,2,4]triazin-7-yl)-2-cyano-3,4-dihydroxytetrahydrofuran-2-yl)methoxy)(phenoxy)phosphoryl)amino)propanoate]
- EC50 [1, 5]: > 100000 nM
- EC50 [2, 6]: 1740 nM
- EC50 [3, 7]: 1240 nM
- EC50 [4, 8]: 3130 nM

SMILES: C[C@H](NP(=O)(OC[C@@]1(C#N)O[C@@H](c2ccc3c(N)ncnn23)[C@H](O)[C@@H]1O)Oc1ccccc1)C(=O)OC1CCCCC1 (stereo partly drawn) [Example 4, (2S)-cyclohexyl 2-(((((2R,3S,4R,5S)-5-(4-aminopyrrolo[2,1-f][1,2,4]triazin-7-yl)-2-cyano-3,4-dihydroxytetrahydrofuran-2-yl)methoxy)(phenoxy)phosphoryl)amino)propanoate]
- EC50 [2, 6]: 96 nM
- EC50 [3, 7]: 76 nM
- EC50 [4, 8]: 510 nM

SMILES: C[C@H](NP(=O)(OC[C@@]1(C#N)O[C@@H](c2ccc3c(N)ncnn23)[C@H](O)[C@@H]1O)Oc1ccccc1)C(=O)OCCC(C)(C)C (single isomer, unassigned) [Example 252]
- EC50 [1]: 7000 nM
- EC50 [2, 6]: 26 nM
- EC50 [3]: 31 nM

SMILES: CCC(C)(C)COC(=O)[C@H](C)NP(=O)(OC[C@@]1(C#N)O[C@@H](c2ccc3c(N)ncnn23)[C@H](O)[C@@H]1O)Oc1ccccc1 (stereo partly drawn) [Example 254, 2,2-dimethylbutyl ((((2R,3S,4R,5S)-5-(4-aminopyrrolo[2,1-f][1,2,4]triazin-7-yl)-2-cyano-3,4-dihydroxytetrahydrofuran-2-yl)methoxy)(phenoxy)phosphoryl)-L-alaninate]
- EC50 [1, 5]: 13000 nM
- EC50 [2, 6]: 17 nM
- EC50 [3, 7]: 46 nM

SMILES: C[C@H](NP(=O)(OC[C@@]1(C#N)O[C@@H](c2ccc3c(N)ncnn23)[C@H](O)[C@@H]1O)Oc1ccccc1)C(=O)OCCC(C)(C)C (single isomer, unassigned) [Example 253]
- EC50 [1]: 2780 nM
- EC50 [2]: 20 nM
- EC50 [3]: 70 nM

From US20230295201A1 (Gilead Sciences, Inc., priority 2020, published 2023)
